From patent US20150259294A1, “METHOD OF PLANT GROWTH PROMOTION USING CARBOXAMIDE DERIVATIVES” (BAYER CROPSCIENCE AG, priority 2012, published 2015)

Key:
[1] = test system: winter wheat variety Dekan; assay: Foliar application field trial Höfchen: green leaves and yield in winter wheat; format: in vivo; details: for Greening Effect (%): 100 EC, assessed at EC 85, 38 days after second application, untreated control 0; for Grain Yield (dt/ha): untreated control 85
Method: The field trial was conducted in the experimental station “Höfchen” in Germany in spring 2012. Winter wheat, variety “Dekan”, was planted on October 2011. Fertilization, herbicide- and plant growth regulator applications were carried out according to the local agricultural practice.
The trial was conducted with 4 replicates. Plot size was 12 m^2 and there were four replicates.
Compound A5 was applied as a 100 EC formulation with rates of 37 and 75 g a.i./ha twice in the growing season at BBCH-growth stages EC 33 and 55.
The effect on the green foliage was assessed on July 2012, 38 days after the second application, at growth stage EC 85, (see table 6).
(§1) The trial was harvested on August 2012.

barley leave discs = assay: Chlorophyll preservation bioassay in barley leave discs; details: barley leaves at 3 dpt vs control at 0 dpt; formula (I) compounds in EC100 formulation, other SDHI in field formulations
Method: (§2) To confirm the greening effect of compounds of formula (I) according to the invention observed in field trials, a simple bioassay was set up using wheat and barley. Discs of 1 cm of diameter were cut within leaves collected from 4 weeks old plants and deep at room temperature in water for 1 hour to allow ethylene produced after wound injury to dissipate. Control samples were produced dipping leave discs for 15 min in a solution of 5% DMSO-10% acetone-0.005% tween80 (bioassay formulation), immediately frozen (control 0 day post treatment-dpt) or deposited on Whatmann filter paper soaked by the bioassay formulation, in Petri dishes, […] Leaves discs treated with test compound were processed in the same way. In this case, leave discs were deep for 15 minutes in test compound solution and left to incubate on filter paper soaked with the corresponding test solution. Compounds of formula (I) according to the invention were tested in EC100 formulation unless otherwise specified; Other SDHI fungicides (Fluxapyroxad, Isopyrazam and Hambra) were tested in their respective field formulations.
(§3) Leave discs were frozen in liquid nitrogen and ground prior to chlorophyll extraction with 1 mL of an acetone-water (80-20 vol/vol) solution and chlorophyll concentration evaluation at 663 nm. Percentages of chlorophyll content in 3 or 4 dpt controls and corresponding treated samples were reported to the chlorophyll content measured in 0 dpt controls.

[2] = test system: winter wheat variety Dekan; assay: Foliar application field trial Laacherhof: yield of winter wheat; format: in vivo; details: 50 g a.i./ha, sprayed threefold at BBCH 31, 39 and 69, 100EC formulation with adjuvant
Method: (§4) The field trial in winter wheat was conducted in the experimental station “Laacherhof” in Germany in spring/summer 2012.
(§5) Seeds of the winter wheat variety “Dekan” were planted on Oct. 17, 2011. Fertilization, herbicide- and plant growth regulator applications were carried out according to the local agricultural practice. Additionally, a cover spray with “Pronto Plus” was carried out at BBCH-growth stage 51 in order to keep brown rust (Puccinia triticina) out of the field trial (trial under pathogen-free conditions). The trial was conducted with 3 replicates and the replicates 2 and 3 were randomized. The plot size was 8.8 m^2.
(§6) Compounds A5 (N-(5-chloro-2-isopropylbenzyl)-N-cyclopropyl-3-(difluoromethyl)-5-fluoro-1-methyl-1H-pyrazole-4-carboxamide), A7 (N-cyclopropyl-3-(difluoromethyl)-5-fluoro-N-(5-fluoro-2-isopropylbenzyl)-1-methyl-1H-pyrazole-4-carboxamide), A12 (N-cyclopropyl-3-(difluoromethyl)-5-fluoro-N-(2-isopropyl-5-methylbenzyl)-1-methyl-1H-pyrazole-4-carboxamide) and A10 (N-cyclopropyl-3-(difluoromethyl)-5-fluoro-N-(2-fluoro-6-isopropylbenzyl)-1-methyl-1H-pyrazole-4-carboxamide) were sprayed threefold at BBCH-growth stages 31, 39 and 69 with an use rate of 50 g a.i./ha. All compounds were applied as 100EC formulation adding an adjuvant.
The winter wheat was harvested on Aug. 3, 2012.

[3] = test system: winter wheat variety Dekan; assay: Foliar application field trial Laacherhof: greening effect in winter wheat; format: in vivo; details: 50 g a.i./ha, sprayed threefold at BBCH 31, 39 and 69; percentage of the color green; untreated control 21.7
Method: as §4, §5, §6
The greening effect of the single treatments was evaluated on Jul. 6, 2012.

wheat leave discs = assay: Chlorophyll preservation bioassay in wheat leave discs; details: wheat leave discs at 4 dpt vs control at 0 dpt; formula (I) compounds in EC100 formulation, other SDHI in field formulations
Method: as §2, §3

[4] = test system: winter wheat variety Akteur; assay: Foliar application field trial Langfoerden (FA12DSD559XJE1): yield in winter wheat; format: in vivo; details: for Grain Yield (dt/ha): 100 EC, disease free, untreated control 62
Method: The field trial FA12DSD559XJE1 was conducted in the experimental station “Langfoerden” in Germany in spring 2012.
Winter wheat, variety “Akteur”, was planted on November 2011. Fertilization, herbicide- and plant growth regulator applications were carried out according to the local agricultural practice.
The trial was conducted with 4 replicates. Plot size was 16 m^2 and there were four replicates.
Compound A5 was applied as a 100 EC formulation with rates of 37 and 75 g a.i./ha twice in the growing season at BBCH-growth stages EC 33 and 61.
In this trial there was no significant disease severity assessed. It can be considered as disease free.
as §1

soybean cultivar BRS 245 = assay: Soybean seed treatment field trial: development and yield; format: in vivo; details: for Plant Height (cm)/%: 050 SC, 42 days after planting, untreated control 33 cm = 100%; for Weight Root (g)/% / Weight Dry Plant (g)/%: 49 days after planting; for Weight Root (g)/%: untreated control 10 g = 100%; for Weight Dry Plant (g)/%: untreated control 46 g = 100%; for Grain Yield (dt)/%: untreated control 28 dt = 100%; for Weight of 1000 Grains (g)/%: untreated control 125 g = 100%
Method: Seeds of the Brazilian soybean cultivar BRS 245 were treated with compound A5: […] The product was applied as 050 SC with rates of 25 and 100 g a.i./dt. The field trial was set up in an experimental station close to Paulinia, S. P., in Brazil, in February 2012. […] Fertilization, herbicide- and insecticide applications were carried out according to the local agricultural practice. 42 days after planting plant height, 49 days after planting the dry weight of both entire green plants and the roots were measured. This trial was done under almost disease free conditions (“Asian Soybean Rust” Phakopsora pachyrhizi arrived about month after planting with a very low severity).

[5] = 37 g a.i./ha twice (EC 33 and 55)
[6] = 75 g a.i./ha twice (EC 33 and 55)
[7] = 37 g a.i./ha twice (EC 33 and 61)
[8] = 75 g a.i./ha twice (EC 33 and 61)

SMILES: CC(C)c1ccc(Cl)cc1CN(C(=O)c1c(C(F)F)nn(C)c1F)C1CC1 [Compound A5, N-(5-chloro-2-isopropylbenzyl)-N-cyclopropyl-3-(difluoromethyl)-5-fluoro-1-methyl-1H-pyrazole-4-carboxamide]
- Grain Yield (% of Untreated Control) [1, 5]: 128%
- Greening Effect (%) [1, 5]: 54%
- Grain Yield (dt/ha) [1, 5]: 109 dt/ha
- Grain Yield (% of Untreated Control) [1, 6]: 136%
- Greening Effect (%) [1, 6]: 86%
- Grain Yield (dt/ha) [1, 6]: 115 dt/ha
- effect on maintenance of green leaves in winter wheat (in words) ([1]; foliar sprays): clearly has an effect on the maintenance of the green leaves shortly before harvest
- Chlorophyll content (%) (barley leave discs): 55%
- Grain Yield (% of Untreated Control) [2]: 120%
- Grain Yield (dt/ha) ([2]; untreated control 86.25): 103.1 dt/ha
- Greening Effect (%) [3]: 26.7%
- Chlorophyll content (%) (wheat leave discs): 78%
- Grain Yield (% of Untreated Control) [4, 7]: 117%
- Grain Yield (dt/ha) [4, 7]: 72 dt/ha
- Grain Yield (% of Untreated Control) [4, 8]: 124%
- Grain Yield (dt/ha) [4, 8]: 76 dt/ha
- effect on grain yield in winter wheat (in words) ([4]; foliar sprays, practically disease-free): clearly has an effect on grain yield
- Plant Height (cm)/% (soybean cultivar BRS 245; seed treatment 25 g a.i./dt): 105%
- Weight Root (g)/% (soybean cultivar BRS 245; seed treatment 25 g a.i./dt): 117%
- Weight Dry Plant (g)/% (soybean cultivar BRS 245; seed treatment 25 g a.i./dt): 107%
- Grain Yield (dt)/% (soybean cultivar BRS 245; seed treatment 25 g a.i./dt): 112%
- Weight of 1000 Grains (g)/% (soybean cultivar BRS 245; seed treatment 25 g a.i./dt): 103%
- Plant Height (cm)/% (soybean cultivar BRS 245; seed treatment 100 g a.i./dt): 105%
- Weight Root (g)/% (soybean cultivar BRS 245; seed treatment 100 g a.i./dt): 103%
- Weight Dry Plant (g)/% (soybean cultivar BRS 245; seed treatment 100 g a.i./dt): 108%
- Grain Yield (dt)/% (soybean cultivar BRS 245; seed treatment 100 g a.i./dt): 111%
- Weight of 1000 Grains (g)/% (soybean cultivar BRS 245; seed treatment 100 g a.i./dt): 105%
- impact on development and yield of soybean (in words) (soybean cultivar BRS 245; seed treatment, almost disease free conditions): clearly stimulates the physiological development of soybean plants and boosts both grain yield and the grain weight
